In patent publication US6727268B2, “2-thioxothiazole derivative, method for preparing the same, and pharmaceutical composition containing the same” (CJ Corp., priority 2002, dated 2004):

Key:
COX-1 = target: T1, COX-1 (Homo sapiens, UniProt P23219); experiment: Assay for the COX-1 inhibitory activity using U-937 (PGE2 inhibition); assay type: cell-based; details: 1 μM test compound; U-937 human lymphoma cells; arachidonic acid substrate; PGE2 vs DMSO control; read-out: Cyclooxygenase (COX) Inhibition (%) COX-1 (1 μM)
T1 construct: host or cells: U-937 human lymphoma cells
T1 sequence (P23219 24-599): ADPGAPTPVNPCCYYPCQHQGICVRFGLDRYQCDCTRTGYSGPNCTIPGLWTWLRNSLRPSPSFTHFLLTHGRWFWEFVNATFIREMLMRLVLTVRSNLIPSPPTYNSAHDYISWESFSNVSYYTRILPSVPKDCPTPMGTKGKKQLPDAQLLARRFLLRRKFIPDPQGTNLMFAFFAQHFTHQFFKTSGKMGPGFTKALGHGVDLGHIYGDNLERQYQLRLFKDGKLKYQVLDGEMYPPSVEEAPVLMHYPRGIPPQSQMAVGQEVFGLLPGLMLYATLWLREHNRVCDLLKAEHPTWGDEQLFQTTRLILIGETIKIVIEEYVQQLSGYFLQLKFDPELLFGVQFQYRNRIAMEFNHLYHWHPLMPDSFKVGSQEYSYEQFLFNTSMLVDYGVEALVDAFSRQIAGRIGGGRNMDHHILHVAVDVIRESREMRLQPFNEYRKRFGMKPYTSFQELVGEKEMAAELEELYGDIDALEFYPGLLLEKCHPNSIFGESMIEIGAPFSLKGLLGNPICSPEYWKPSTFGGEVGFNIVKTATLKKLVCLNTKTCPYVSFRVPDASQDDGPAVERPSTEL
Description: The collected cells were diluted with HBSS (×1, Hank's balanced salt solution) to a concentration of 1×10^6 cells/ml. 1 ml of the dilute cell solution was placed into each well of 12-well plates. 5 μl of 1 μM solution of a test compound in DMSO and 5 μl of DMSO as a control were added to the wells. The wells were incubated in CO2 incubator at 37° C. for 15 minutes. Separately, 10 mM stock solution of arachidonic acid in ethanol was diluted ten times in ethanol to prepare 1 mM solution of arachidonic acid. Arachidonic acid acts as a substrate. 10 μl of the 1 mM solution of arachidonic acid was added to each well and incubated at CO2 incubator at 37° C. for 30 minutes. The cell solution of each well was placed in a centrifuge test tube and centrifuged at 10,000 rpm at 4° C. for 5 minutes. The concentration of PGE2 in the collected cells and the supernatant was quantified by means of a monoclonal kit (Cayman Chemicals). The percentages of PGE2 inhibition in a group of the test compound-treated cells in relation to a group of the DMSO-treated cells were calculated. Based on the calculated values, the COX-1 inhibitory activities were evaluated.
(§1) The percentages of the COX inhibition were calculated according to the following equation: [formula]

COX-2 = target: T2, COX-2 (Mus musculus, UniProt Q05769); experiment: Assay for the COX-2 inhibitory activity using RAW 264.7 cell line (PGE2, EIA); assay type: cell-based; details: RAW264.7, 10 nM test compound, RAW 264.7 cells, aspirin pre-treated, interferon + LPS 18 hours, read-out: Cyclooxygenase (COX) Inhibition (%) COX-2 (10 nM)
T2 construct: host or cells: RAW 264.7 cells, pre-treated with aspirin and induced with interferon and LPS
T2 sequence (Q05769 18-604): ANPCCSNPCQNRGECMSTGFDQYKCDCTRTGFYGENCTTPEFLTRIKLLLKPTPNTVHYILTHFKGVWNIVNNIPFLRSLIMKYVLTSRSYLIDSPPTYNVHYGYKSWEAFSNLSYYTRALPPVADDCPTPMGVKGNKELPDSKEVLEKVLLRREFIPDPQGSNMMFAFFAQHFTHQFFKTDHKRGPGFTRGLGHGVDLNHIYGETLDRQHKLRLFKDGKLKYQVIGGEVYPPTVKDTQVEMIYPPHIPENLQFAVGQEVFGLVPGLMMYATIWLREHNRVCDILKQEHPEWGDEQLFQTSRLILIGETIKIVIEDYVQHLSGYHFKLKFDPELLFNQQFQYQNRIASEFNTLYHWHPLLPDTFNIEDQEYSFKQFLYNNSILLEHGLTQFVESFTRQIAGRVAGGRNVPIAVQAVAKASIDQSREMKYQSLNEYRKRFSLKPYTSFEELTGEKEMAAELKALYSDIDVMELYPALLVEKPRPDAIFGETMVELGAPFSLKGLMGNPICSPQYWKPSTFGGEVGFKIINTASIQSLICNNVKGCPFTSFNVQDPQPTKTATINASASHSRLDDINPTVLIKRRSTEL
Description: Each well was treated with 250 μM of aspirin and incubated at 37° C. for 2 hours. After the culture media were replaced with new culture media, the new culture media were treated with a test compound (10 nM) and incubated for 30 minutes. Then, each well was treated with interferon ? (100 units/ml) and lipopolysaccharide (LPS, 100 ng/ml) and incubated for 18 hours. The culture media were transferred to other test tubes. The concentration of PGE2 was quantified by means of the EIA kit (Cayman Chemicals).
as §1

Row | Structure (SMILES) | melting point [°C] | inhibition at 1 µM (COX-1) [%] | inhibition at 0.01 µM (COX-2) [%]
1 | NS(=O)(=O)c1ccc(-n2c(-c3ccccc3)csc2=S)cc1 [Example 1, 4-(4-phenyl-2-thioxothiazole-3-yl)benzenesulfonamide] | 235 | 28.5 | 60.9
2 | Cc1sc(=S)n(-c2ccc(S(N)(=O)=O)cc2)c1-c1ccccc1 [Example 2, 4-(5-methyl-4-phenyl-2-thioxothiazole-3-yl)benzenesulfonamide] | 262 | 35.2 | 66.5
3 | CS(=O)(=O)c1ccc(-c2csc(=S)n2-c2ccc(S(N)(=O)=O)cc2)cc1 [Example 3, 4-[4-(4-methanesulfonylphenyl)-2-thioxothiazole-3-yl]benzenesulfo namide] | 288 | 30.7 | 65.8
4 | NS(=O)(=O)c1ccc(-n2c(-c3ccc(F)cc3)csc2=S)cc1 [Example 4, 4-[4-(4-fluorophenyl)-2-thioxothiazole-3-yl]benzenesulfonamide] | 271 | 31.1 | 72.7
5 | NS(=O)(=O)c1ccc(-n2c(-c3cccc([N+](=O)[O-])c3)csc2=S)cc1 [Example 5, 4-[4-(3-nitrophenyl)-2-thioxothiazole-3-yl]benzenesulfonamide] | 284 | 15.8 | 75
6 | NS(=O)(=O)c1ccc(-n2c(-c3ccc(Cl)cc3)csc2=S)cc1 [Example 6, 4-[4-(4-chlorophenyl)-2-thioxothiazole-3-yl]benzenesulfonamide] | 242 | 38.5 | 73.5
7 | Cc1onc(-c2ccccc2)c1-c1ccc(S(N)(=O)=O)cc1 [Reference (Valdecoxib), Valdecoxib, reference compound] |  | 29.5 | 
